# In patent EP4624466A1, “DEGRADER FOR DECOMPOSING CMET PROTEIN, AND PHARMACEUTICAL COMPOSITION COMPRISING SAME” (Innocure Therapeutics, Inc., priority 2022, dated 2024):
# Legend:
# [1] = tested on: MKN-45; experiment: Cell viability / antiproliferative assay (WST-8), MKN-45; conditions: Homo sapiens, MKN-45, 72 h, read-out: MKN-45 IC50;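 note: MKN-45 is a human gastric cancer line overexpressing c-MET, growth inhibition read as WST-8 formazan absorbance at 450 nm after 2 h dye incubation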
# [2] = target: T1, c-MET (Homo sapiens, UniProt P08581); experiment: c-MET protein degradation (Simple Western), MKN-45; type: cell-based; set-up: assess the resolution of the compound of the present invention for c-MET expressed in cells; endogenous in cells; host or cells: MKN45 (human gastric cancer); conditions: c-MET overexpressing gastric cancer cell line MKN-45, treated 24 hours; Table 2
# T1 sequence (P08581 25-1390): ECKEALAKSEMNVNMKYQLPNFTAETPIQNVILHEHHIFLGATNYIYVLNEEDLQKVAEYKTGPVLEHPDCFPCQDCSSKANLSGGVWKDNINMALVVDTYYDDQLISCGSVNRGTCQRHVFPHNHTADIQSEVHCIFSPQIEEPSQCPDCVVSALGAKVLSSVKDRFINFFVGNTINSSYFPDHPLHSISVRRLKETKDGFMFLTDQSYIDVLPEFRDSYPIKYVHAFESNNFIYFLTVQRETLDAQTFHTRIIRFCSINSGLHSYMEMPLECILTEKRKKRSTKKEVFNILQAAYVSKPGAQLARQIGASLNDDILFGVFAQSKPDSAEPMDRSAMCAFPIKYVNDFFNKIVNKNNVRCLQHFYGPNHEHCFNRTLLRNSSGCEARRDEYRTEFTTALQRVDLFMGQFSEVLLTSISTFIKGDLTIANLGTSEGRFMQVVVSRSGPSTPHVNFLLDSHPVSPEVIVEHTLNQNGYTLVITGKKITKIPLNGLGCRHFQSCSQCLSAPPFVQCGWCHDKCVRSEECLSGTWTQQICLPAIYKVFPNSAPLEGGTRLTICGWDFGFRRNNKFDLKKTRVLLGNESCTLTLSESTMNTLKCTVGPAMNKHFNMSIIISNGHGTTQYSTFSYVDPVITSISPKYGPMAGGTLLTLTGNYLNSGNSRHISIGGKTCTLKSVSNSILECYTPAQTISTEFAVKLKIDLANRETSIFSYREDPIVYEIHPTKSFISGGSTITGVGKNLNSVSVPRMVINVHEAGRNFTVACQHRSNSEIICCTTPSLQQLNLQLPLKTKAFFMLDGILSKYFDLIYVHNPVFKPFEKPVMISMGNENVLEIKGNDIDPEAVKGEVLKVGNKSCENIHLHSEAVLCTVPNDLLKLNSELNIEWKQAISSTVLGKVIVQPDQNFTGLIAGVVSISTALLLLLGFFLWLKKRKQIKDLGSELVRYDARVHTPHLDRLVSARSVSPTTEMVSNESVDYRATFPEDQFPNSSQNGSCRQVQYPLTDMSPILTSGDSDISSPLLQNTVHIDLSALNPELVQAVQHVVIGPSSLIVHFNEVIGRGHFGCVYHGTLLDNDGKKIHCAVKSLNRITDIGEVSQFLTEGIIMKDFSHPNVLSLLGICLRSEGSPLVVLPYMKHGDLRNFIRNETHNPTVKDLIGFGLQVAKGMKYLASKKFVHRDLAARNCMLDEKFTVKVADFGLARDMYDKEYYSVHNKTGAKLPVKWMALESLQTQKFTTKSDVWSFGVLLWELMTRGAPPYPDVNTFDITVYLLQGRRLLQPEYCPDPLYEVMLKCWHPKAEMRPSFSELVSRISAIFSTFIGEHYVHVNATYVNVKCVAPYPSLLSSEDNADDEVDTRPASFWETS
# Method in brief: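 Cells treated 24 h (gastric lines) or 48 h (lung lines); 3 µg lysate protein analysed by capillary Simple Western with anti-c-MET, normalized to GAPDH and expressed as % of 0.1% DMSO; DC50 from expression change.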
# [3] = tested on: SNU-638; experiment: Cell viability / antiproliferative assay (WST-8), SNU-638; type: cell-based, human; conditions: Homo sapiens, SNU-638, 72 h, read-out: SNU-638 IC50
# Method: (§2) c-MET overexpressing human gastric cancer cell lines [MKN45] and [SNU638] were cultured in RPMI medium with 10% fetal bovine serum, penicillin (100U/ml), and streptomycin (100mg/ml), and c-MET exon 14 skipping mutant human gastric cancer cell lines [Hs746T] were cultured in DMEM media. The c-MET overexpressing human lung cancer cell line EBC-1 was cultured in MEM media with the addition of 10% fetal bovine serum, penicillin (100U/ml), and streptomycin (100mg/ml). […] The compound synthesized in accordance with the present invention was prepared with a raw material solution of 10 mM dissolved in DMSO (dimethyl sulfoxide), and was sequentially diluted and processed.
# (§3) In order to observe the inhibitory activity on cell growth, cells were dispensed in a 96-well plate at a concentration of 5,000 cells/well, and then treated with the compound prepared at various concentrations for 72 hours. The viability of the cells was calculated using GraphicPad Prism 8.0 software by adding 10 ml per well of WST-8 (water soluble tetrazolium salt) sample, which reacts with dehydrogenase present in the electron transport system of mitochondria to produce formazon, incubated for 2 hours, and measured absorbance at 450 nm.
# [4] = tested on: EBC-1; experiment: Cell viability / antiproliferative assay (WST-8), EBC-1; type: cell-based, human; conditions: Homo sapiens, EBC-1, 72 h, read-out: EBC-1 IC50
# Method: as §2, §3
# [5] = tested on: Hs746T; experiment: Cell viability / antiproliferative assay (WST-8), Hs746T; type: cell-based; conditions: Homo sapiens, Hs746T cells, 72 hours, Table 2
# Method: as §2, §3
# [6] = target: T1, c-MET; experiment: c-MET protein degradation (Simple Western), EBC-1; type: cell-based; set-up: assess the resolution of the compound of the present invention for c-MET expressed in cells; endogenous in cells; host or cells: EBC-1 (human lung cancer); conditions: c-MET overexpressing lung cancer cell line EBC-1, treated 48 hours; Table 2
# Method: (§1) In order to assess the resolution of the compound of the present invention for c-MET expressed in cells, cells were dispensed in a 12-well plate at a concentration of 2 × 10^5 cells/well, and then gastric cancer cell lines were treated with samples for 24 hours and lung cancer cell lines were treated for 48 hours. Cell lysates were collected using a scraper on ice, centrifuged at 4°C15,000 rpm for 30 min to obtain a protein-containing supernatant. Protein expression was then measured using the Simple Western Automated Western Blot System Abby instrument using 3 µg of protein for each sample. SDS and heat-induced denaturation proteins were separated by molecular weight, attached to capillary, reacted with anti-c-MET or anti-GAPDH antibodies, which are primary antibodies, and then reacted with HRP-conjugated secondary antibodies, and analyzed the protein expression signal with compass software. Protein expression was normalized based on the expression value of GAPDH, and protein development in each sample was measured as a percentage (%) based on 100% of samples treated with 0.1% DMSO carriers, and DC50 (concentration of a compound where 50% protein inhibition is achieved) was calculated from the change in protein expression amount due to compound treatment.
# [7] = target: T2, c-MET (Homo sapiens, UniProt P08581, DEL963-1009); experiment: c-MET protein degradation (Simple Western), Hs746T; type: cell-based; conditions: c-MET exon 14 skipping mutant gastric cancer cell line Hs746T, treated 24 hours; Table 2
# T2 construct: assess the resolution of the compound of the present invention for c-MET expressed in cells; endogenous in cells; host or cells: Hs746T (human gastric cancer)
# T2 sequence (P08581 with tags, fused parts or gaps DEL963-1009): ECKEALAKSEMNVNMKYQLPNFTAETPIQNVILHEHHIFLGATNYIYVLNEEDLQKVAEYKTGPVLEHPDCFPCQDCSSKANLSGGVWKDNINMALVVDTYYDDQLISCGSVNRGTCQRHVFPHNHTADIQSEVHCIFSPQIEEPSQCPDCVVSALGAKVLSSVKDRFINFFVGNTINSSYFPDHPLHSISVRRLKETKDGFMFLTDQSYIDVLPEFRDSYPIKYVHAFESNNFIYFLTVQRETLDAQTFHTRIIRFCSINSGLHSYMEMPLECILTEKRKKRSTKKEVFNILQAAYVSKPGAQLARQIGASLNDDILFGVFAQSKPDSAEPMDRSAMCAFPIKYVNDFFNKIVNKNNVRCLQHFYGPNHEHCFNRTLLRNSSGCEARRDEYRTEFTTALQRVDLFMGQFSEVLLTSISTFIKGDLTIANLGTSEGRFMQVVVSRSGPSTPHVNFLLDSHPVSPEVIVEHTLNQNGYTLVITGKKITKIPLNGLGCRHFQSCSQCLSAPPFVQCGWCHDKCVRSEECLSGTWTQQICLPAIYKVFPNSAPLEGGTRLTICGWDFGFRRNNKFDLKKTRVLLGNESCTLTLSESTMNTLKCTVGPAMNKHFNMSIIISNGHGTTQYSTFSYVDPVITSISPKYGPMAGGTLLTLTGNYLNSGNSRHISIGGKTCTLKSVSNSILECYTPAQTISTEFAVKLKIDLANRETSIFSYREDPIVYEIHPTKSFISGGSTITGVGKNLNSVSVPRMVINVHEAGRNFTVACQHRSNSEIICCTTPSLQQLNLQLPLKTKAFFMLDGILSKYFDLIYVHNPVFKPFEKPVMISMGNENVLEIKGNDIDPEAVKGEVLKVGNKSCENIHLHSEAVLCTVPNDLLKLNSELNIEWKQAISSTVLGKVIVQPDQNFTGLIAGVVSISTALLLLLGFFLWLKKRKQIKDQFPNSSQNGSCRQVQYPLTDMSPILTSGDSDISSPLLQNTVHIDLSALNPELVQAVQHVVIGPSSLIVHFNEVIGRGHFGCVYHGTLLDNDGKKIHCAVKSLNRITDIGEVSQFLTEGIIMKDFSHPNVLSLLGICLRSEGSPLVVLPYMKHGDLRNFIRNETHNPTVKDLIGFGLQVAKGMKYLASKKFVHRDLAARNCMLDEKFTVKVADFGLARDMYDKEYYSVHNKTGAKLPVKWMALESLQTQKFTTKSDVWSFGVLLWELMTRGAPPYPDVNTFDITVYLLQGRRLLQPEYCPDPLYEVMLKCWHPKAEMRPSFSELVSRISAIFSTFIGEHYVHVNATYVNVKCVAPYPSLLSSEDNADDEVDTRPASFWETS
# T2 sequence (P08581 25-307 partner limits assumed): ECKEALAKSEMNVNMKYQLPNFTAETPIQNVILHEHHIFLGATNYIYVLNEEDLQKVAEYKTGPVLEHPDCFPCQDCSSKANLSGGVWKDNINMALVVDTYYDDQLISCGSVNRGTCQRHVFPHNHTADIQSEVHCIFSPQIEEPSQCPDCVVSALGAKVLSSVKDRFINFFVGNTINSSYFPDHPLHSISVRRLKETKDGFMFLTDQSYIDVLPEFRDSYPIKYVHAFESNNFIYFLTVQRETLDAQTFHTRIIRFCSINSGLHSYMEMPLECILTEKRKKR
# Method: as §1
# [8] = target: T1, c-MET; experiment: c-MET protein degradation (Simple Western), SNU-638; type: cell-based; set-up: assess the resolution of the compound of the present invention for c-MET expressed in cells; endogenous in cells; host or cells: SNU638 (human gastric cancer); conditions: c-MET overexpressing gastric cancer cell line SNU-638, treated 24 hours; Table 2
# Method: as §1
smiles,measurement,setting,value
Cc1nn(C2CCC(=O)NC2=O)c(=O)c2ccc(N3CCN(c4ccc(NC(=O)CN5CCC(COc6cnc(-c7cccc(Cn8nc(-c9cccc(C#N)c9)ccc8=O)c7)nc6)CC5)cc4)CC3)cc12 (stereo not shown) [ICT-0001207],IC50,[1],< 100 nM
same,DC50,[2],< 100 nM
same,IC50,[3],< 100 nM
same,IC50,[4],< 100 nM
same,IC50,[5],100 to 1000 nM
same,DC50,[6],< 100 nM
same,DC50,[7],< 100 nM
same,DC50,[8],< 100 nM
N#Cc1cccc(-c2ccc(=O)n(Cc3cccc(-c4ncc(N5CCN(CC6CCN(c7ccc(NC8CCC(=O)NC8=O)cc7F)CC6)CC5)cn4)c3)n2)c1 (stereo not shown) [ICT-0001402],IC50,[3],< 100 nM
same,IC50,[4],< 100 nM
same,IC50,[5],< 100 nM
same,DC50,[6],< 100 nM
same,DC50,[7],< 100 nM
same,DC50,[8],< 100 nM
Cc1nn(C2CCC(=O)NC2=O)c(=O)c2cc(F)c(N3CCN(CC4CCN(C(=O)CN5CCC(COc6cnc(-c7cccc(Cn8nc(-c9cccc(C#N)c9)ccc8=O)c7)nc6)CC5)CC4)CC3)cc12 (stereo not shown) [ICT-0001204],IC50,[1],< 100 nM
same,DC50,[2],< 100 nM
same,IC50,[4],< 100 nM
same,IC50,[5],100 to 1000 nM
Cc1nn(C2CCC(=O)NC2=O)c(=O)c2ccc(N3CCN(C(=O)CCN4CCC(COc5cnc(-c6cccc(Cn7nc(-c8cccc(C#N)c8)ccc7=O)c6)nc5)CC4)CC3)cc12 (stereo not shown) [ICT-0001224],IC50,[1],< 100 nM
same,DC50,[2],< 100 nM
same,IC50,[5],< 100 nM
N#Cc1cccc(-c2ccc(=O)n(Cc3cccc(-c4ncc(OCC5CCN(CCC(=O)N6CCN(c7ccc8c(=O)n(C9CCC(=O)NC9=O)ncc8c7)CC6)CC5)cn4)c3)n2)c1 (stereo not shown) [ICT-0001223],IC50,[1],< 100 nM
same,DC50,[2],< 100 nM
same,IC50,[5],< 100 nM
N#Cc1cccc(-c2ccc(=O)n(Cc3cccc(-c4ncc(OCC5CCN(CC(=O)NCCCC#Cc6ccc7c(=O)n(C8CCC(=O)NC8=O)ncc7c6)CC5)cn4)c3)n2)c1 (stereo not shown) [ICT-0001205],IC50,[1],< 100 nM
same,DC50,[2],< 100 nM
same,IC50,[5],100 to 1000 nM
"Cc1nn(C2CCC(=O)NC2=O)c(=O)c2ccc(N3CCN(C(=O)CCCN4CCC(COc5cnc(-c6cccc(Cn7nc(-c8cccc(C#N)c8)ccc7=O)c6)nc5)CC4)CC3)cc12 (stereo not shown) [ICT-0001227, 3-(1-(3-(5-((1-(4-(4-(2-(2,6-dioxopiperidin-3-yl)-4-methyl-1-oxo-1,2-dihydropetalazine-6-yl)piperazine-1-yl)4-oxobutyl)piperidine-4-yl)methoxy)pyrimidine-2-yl)benzyl)6-oxo-1,6-dihydropyridazine-3-yl)benzonitrile]",IC50,[1],< 100 nM
same,IC50,[5],< 100 nM
N#Cc1cccc(-c2ccc(=O)n(Cc3cccc(-c4ncc(OCC5CCN(CCCC(=O)N6CCN(c7ccc8c(=O)n(C9CCC(=O)NC9=O)ncc8c7)CC6)CC5)cn4)c3)n2)c1 (stereo not shown) [ICT-0001226],IC50,[1],< 100 nM
same,IC50,[5],< 100 nM
Cc1nn(C2CCC(=O)NC2=O)c(=O)c2cc(N3CCN(C(=O)CCN4CCC(COc5cnc(-c6cccc(Cn7nc(-c8cccc(C#N)c8)ccc7=O)c6)nc5)CC4)CC3)ccc12 (stereo not shown) [ICT-0001.225],IC50,[1],< 100 nM
same,DC50,[2],< 100 nM
same,IC50,[5],< 100 nM
"Cc1nn(C2CCC(=O)NC2=O)c(=O)c2ccc(N3CCN(CCN4CCC(COc5cnc(-c6cccc(Cn7nc(-c8cccc(C#N)c8)ccc7=O)c6)nc5)CC4)CC3)cc12 (stereo not shown) [ICT-0001277, 3-(1-{[3-(5-{[1-(2-{4-[2-(2,6-dioxopiperidin-3-yl)-4-methyl-1-oxo-1,2-dihydrophthalazine-6-yl]piperazine-1-yl}ethyl)piperidine-4-il]methoxy}pyrimidine-2-yl)phenyl]methyl}6-oxo-1,6-dihydropyridazine-3-yl)benzonitrile]",IC50,[1],< 100 nM
same,DC50,[2],< 100 nM
same,IC50,[3],< 100 nM
same,IC50,[4],< 100 nM
same,IC50,[5],< 100 nM
same,DC50,[6],< 100 nM
same,DC50,[7],< 100 nM
same,DC50,[8],< 100 nM
Cc1nn(C2CCC(=O)NC2=O)c(=O)c2cc(N3CCN(C(=O)CCCN4CCC(COc5cnc(-c6cccc(Cn7nc(-c8cccc(C#N)c8)ccc7=O)c6)nc5)CC4)CC3)ccc12 (stereo not shown) [ICT-0001228],DC50,[2],< 100 nM
same,IC50,[5],100 to 1000 nM
Cc1nn(C2CCC(=O)NC2=O)c(=O)c2ccc(N3CCN(C(=O)CCCCN4CCC(COc5cnc(-c6cccc(Cn7nc(-c8cccc(C#N)c8)ccc7=O)c6)nc5)CC4)CC3)cc12 (stereo not shown) [ICT-0001250],IC50,[1],< 100 nM
same,IC50,[5],< 100 nM
